Measured values taken from ChEMBL document CHEMBL6103569, “Discovery of novel fluorine-containing parthenolide analogues as potential antitumor agents” (Eur J Med Chem, 2025).
The source made the active and inactive calls. No cut-off for these calls is given here.

Key:
[1] = Acute toxicity in BALB/c mouse assessed as brain damage at 100 mg/kg, po; format: organism-based; conditions: in vivo
PANC-1 [2] = experiment: Antiproliferative activity against human PANC-1 cells assessed as inhibition of cell growth incubated for 72 hrs by MTT assay; format: functional, cell-based
[3] = Initial plasma concentration in male BALB/c mouse at 10 mg/kg, iv measured upto 24 hrs by LC-MS/MS analysis; format: ADME, organism-based
[4] = AUC (0 to t) in male BALB/c mouse at 10 mg/kg, iv measured upto 24 hrs by LC-MS/MS analysis; format: ADME, organism-based; conditions: in vivo
[5] = Oral bioavailability in male BALB/c mouse at 50 mg/kg measured upto 24 hrs by LC-MS/MS analysis; format: ADME, organism-based; conditions: in vivo
[6] = AUC (0 to t) in male BALB/c mouse at 50 mg/kg, po measured upto 24 hrs by LC-MS/MS analysis; format: ADME, organism-based; conditions: in vivo
[7] = Acute toxicity in BALB/c mouse assessed as liver damage at 100 mg/kg, po; format: organism-based; conditions: in vivo
[8] = Half life in male BALB/c mouse at 10 mg/kg, iv measured upto 24 hrs by LC-MS/MS analysis; format: ADME, organism-based; conditions: in vivo
[9] = AUC (0 to infinity) in male BALB/c mouse at 10 mg/kg, iv measured upto 24 hrs by LC-MS/MS analysis; format: ADME, organism-based; conditions: in vivo
[10] = Prodrug conversion of the compound in HEPES buffer assessed as (1aR,7aS,10aS,10bS)-1a-methyl-8-methylene-5-(2,2,2-trifluoroethyl)-2,3,6,7,7a,8,10a,10b-octahydrooxireno[2',3':9,10]cyclodeca[1,2-b]furan-9(1aH)-one formation by measuring half life at pH 7.4 by RP-HPLC analysis; format: ADME
[11] = Antiproliferative activity against human NCI-H820 cells assessed as inhibition of cell growth incubated for 72 hrs by MTT assay; format: functional, cell-based
[12] = AUC (0 to infinity) in male BALB/c mouse at 50 mg/kg, po measured upto 24 hrs by LC-MS/MS analysis; format: ADME, organism-based; conditions: in vivo
[13] = Acute toxicity in BALB/c mouse assessed as change in body weight at 100 mg/kg, po; format: organism-based; conditions: in vivo
[14] = MRT (0 to t) in male BALB/c mouse at 10 mg/kg, iv measured upto 24 hrs by LC-MS/MS analysis; format: ADME, organism-based; conditions: in vivo
[15] = Acute toxicity in BALB/c mouse assessed as lung damage at 100 mg/kg, po; format: organism-based; conditions: in vivo
[16] = Acute toxicity in BALB/c mouse assessed as heart damage at 100 mg/kg, po; format: organism-based; conditions: in vivo
[17] = Half life in male BALB/c mouse at 50 mg/kg, po measured upto 24 hrs by LC-MS/MS analysis; format: ADME, organism-based; conditions: in vivo
[18] = Tmax in male BALB/c mouse at 50 mg/kg, po measured upto 24 hrs by LC-MS/MS analysis; format: ADME, organism-based; conditions: in vivo
[19] = Acute toxicity in BALB/c mouse assessed as spleen damage at 100 mg/kg, po; format: organism-based; conditions: in vivo
[20] = Cmax in male BALB/c mouse at 50 mg/kg, po measured upto 24 hrs by LC-MS/MS analysis; format: ADME, organism-based; conditions: in vivo
[21] = Volume of distribution in male BALB/c mouse at 10 mg/kg, iv measured upto 24 hrs by LC-MS/MS analysis; format: ADME, organism-based; conditions: in vivo
[22] = MRT (0 to t) in male BALB/c mouse at 50 mg/kg, po measured upto 24 hrs by LC-MS/MS analysis; format: ADME, organism-based; conditions: in vivo
Huh-7 [23] = experiment: Antiproliferative activity against human Huh-7 cells assessed as inhibition of cell growth incubated for 72 hrs by MTT assay; format: functional, cell-based
[24] = Clearance in male BALB/c mouse at 10 mg/kg, iv measured upto 24 hrs by LC-MS/MS analysis; format: ADME, organism-based; conditions: in vivo
[25] = Acute toxicity in BALB/c mouse assessed as kidney damage at 100 mg/kg, po; format: organism-based; conditions: in vivo
[26] = Induction of apoptosis in human NCI-H820 cells assessed as late apoptotic cells at 2 uM incubated for 48 hrs by Annexin V/FITC staining based flow cytometry analysis (reference value: 0.025%); format: functional
NCI-H820 [27] = experiment: Inhibition of colony formation in human NCI-H820 cells incubated for 7 to 10 days by crystal violet staining based analysis; format: functional, cell-based; conditions: dose 0.2-5 µM, time 7-10 day
[28] = Induction of apoptosis in human NCI-H820 cells assessed as necrotic cells at 10 uM incubated for 48 hrs by Annexin V/FITC staining based flow cytometry analysis (reference value: 0.060%); format: functional
NCI-H820 [29] = experiment: Downregulation of STAT3 level in human NCI-H820 cells incubated for 48 hrs by Western blot analysis; format: functional, cell-based; conditions: dose <= 5.0 µM
[30] = Induction of apoptosis in human NCI-H820 cells assessed as late apoptotic cells at 10 uM incubated for 48 hrs by Annexin V/FITC staining based flow cytometry analysis (reference value: 0.025%); format: functional
NCI-H820 [31] = experiment: Inhibition of cell migration in human NCI-H820 cells assessed as decrease in migration rate incubated for 48 hrs by transwell assay; format: functional, cell-based; conditions: dose <= 5.0 µM
[32] = Induction of apoptosis in human NCI-H820 cells assessed as necrotic cells at 2 uM incubated for 48 hrs by Annexin V/FITC staining based flow cytometry analysis (reference value: 0.060%); format: functional
NCI-H820 [33] = experiment: Upregulation of E-cadherin level in human NCI-H820 cells upto 5 uM incubated for 48 hrs by Western blot analysis; format: functional, cell-based
[34] = Induction of apoptosis in human NCI-H820 cells assessed as viable cells at 5 uM incubated for 48 hrs by Annexin V/FITC staining based flow cytometry analysis (reference value: 98%); format: functional; conditions: read-out: Activity
PANC-1 [35] = experiment: Inhibition of colony formation in human PANC-1 cells incubated for 7 to 10 days by crystal violet staining based analysis; format: functional, cell-based; conditions: dose 0.2-5 µM, time 7-10 day
NCI-H820 [36] = experiment: Inhibition of cell migration in human NCI-H820 cells assessed as decrease in migration rate incubated for 48 hrs by wound healing assay; format: functional, cell-based; conditions: dose <= 5.0 µM
Huh-7 [37] = experiment: Inhibition of colony formation in human Huh-7 cells incubated for 7 to 10 days by crystal violet staining based analysis; format: functional, cell-based; conditions: dose 0.2-5 µM, time 7-10 day
NCI-H820 [38] = experiment: Inhibition of Bcl-2 expression in human NCI-H820 cells incubated for 48 hrs by Western blot analysis; format: functional, cell-based; conditions: dose <= 5.0 µM
[39] = biological target: Signal transducer and activator of transcription 3 (Homo sapiens) (UniProt P40763); experiment: Inhibition of STAT3 phosphorylation in human NCI-H820 cells incubated for 48 hrs by Western blot analysis; format: cell-based; conditions: dose <= 5.0 µM
Signal transducer and activator of transcription 3 (Homo sapiens), sequence (P40763 whole entry): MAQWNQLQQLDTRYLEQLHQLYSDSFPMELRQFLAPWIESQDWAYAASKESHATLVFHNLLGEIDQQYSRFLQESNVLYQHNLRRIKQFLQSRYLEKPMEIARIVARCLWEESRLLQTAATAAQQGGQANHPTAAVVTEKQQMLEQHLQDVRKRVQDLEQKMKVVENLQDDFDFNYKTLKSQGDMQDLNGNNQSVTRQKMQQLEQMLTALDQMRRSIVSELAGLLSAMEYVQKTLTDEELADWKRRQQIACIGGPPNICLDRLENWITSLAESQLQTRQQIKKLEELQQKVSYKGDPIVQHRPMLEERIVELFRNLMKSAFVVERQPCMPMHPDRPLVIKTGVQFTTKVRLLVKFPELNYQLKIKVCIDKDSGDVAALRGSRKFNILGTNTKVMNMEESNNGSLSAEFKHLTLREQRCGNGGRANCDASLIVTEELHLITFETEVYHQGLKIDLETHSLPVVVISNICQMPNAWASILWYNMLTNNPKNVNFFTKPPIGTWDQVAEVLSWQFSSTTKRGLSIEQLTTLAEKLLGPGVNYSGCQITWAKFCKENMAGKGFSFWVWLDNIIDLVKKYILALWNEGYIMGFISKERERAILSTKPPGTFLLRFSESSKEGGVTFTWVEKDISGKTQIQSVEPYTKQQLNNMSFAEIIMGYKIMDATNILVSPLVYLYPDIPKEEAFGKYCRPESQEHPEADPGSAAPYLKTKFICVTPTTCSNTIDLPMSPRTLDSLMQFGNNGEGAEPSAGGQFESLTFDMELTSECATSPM

[40] = Induction of apoptosis in human NCI-H820 cells assessed as late apoptotic cells at 5 uM incubated for 48 hrs by Annexin V/FITC staining based flow cytometry analysis (reference value: 0.025%); format: functional
[41] = Induction of apoptosis in human NCI-H820 cells assessed as necrotic cells at 5 uM incubated for 48 hrs by Annexin V/FITC staining based flow cytometry analysis (reference value: 0.060%); format: functional
[42] = Induction of apoptosis in human NCI-H820 cells assessed as early apoptotic cells at 2 uM incubated for 48 hrs by Annexin V/FITC staining based flow cytometry analysis (reference value: 0.012%); format: functional
NCI-H820 [43] = experiment: Downregulation of Vimentin level in human NCI-H820 cells upto 5 uM incubated for 48 hrs by Western blot analysis; format: functional, cell-based
[44] = Induction of apoptosis in human NCI-H820 cells assessed as viable cells at 2 uM incubated for 48 hrs by Annexin V/FITC staining based flow cytometry analysis (reference value: 98%); format: functional; conditions: read-out: Activity
NCI-H820 [45] = experiment: Inhibition of Ki67 expression in human NCI-H820 cells incubated for 48 hrs by Western blot analysis; format: functional, cell-based; conditions: dose <= 5.0 µM
[46] = Induction of apoptosis in human NCI-H820 cells assessed as early apoptotic cells at 5 uM incubated for 48 hrs by Annexin V/FITC staining based flow cytometry analysis (reference value: 0.012%); format: functional
[47] = Induction of apoptosis in human NCI-H820 cells assessed as early apoptotic cells at 10 uM incubated for 48 hrs by Annexin V/FITC staining based flow cytometry analysis (reference value: 0.012%); format: functional
NCI-H820 [48] = experiment: Antitumor activity against human NCI-H820 cells xenografted in BALB/c nude mouse model assessed as reduction in tumor volume at 30 mg/kg, po administered every 2 days; format: functional, organism-based; conditions: time 2.0 day
NCI-H820 [49] = experiment: Antitumor activity against human NCI-H820 cells xenografted in BALB/c nude mouse model assessed as reduction in tumor weight at 30 mg/kg, po administered every 2 days; format: functional, organism-based; conditions: time 2.0 day

Compound: CN(C)CC1C(=O)O[C@H]2[C@H]1CC/C(CC(F)(F)F)=C\CC[C@@]1(C)O[C@@H]21.O=C(O)/C=C/C(=O)O (stereo partly drawn)
- Activity [1]: Non-toxic
- IC50 (PANC-1 [2]; panc-1): 4.16 µM
- C0 at 24 h [3]: 1450 ng/mL
- AUC(0-t) at 24 h [4]: 438 ng·h/mL
- bioavailability [5]: 45.2%
- AUC(0-t) at 24 h [6]: 991 ng·h/mL
- Activity [7]: Non-toxic
- half-life [8]: 33.2 min
- AUC(0-inf) [9]: 444 ng·h/mL
- t1/2 [10]: 76.8 min
- IC50 ([11]; nci-h820): 4.18 µM
- AUC(0-inf) [12]: 991 ng·h/mL
- Activity [13]: Non-toxic
- MRT last at 24 h [14]: 24.1 min
- Activity [15]: Non-toxic
- Activity [16]: Non-toxic
- half-life [17]: 47.9 min
- Tmax [18]: 15 min
- Activity [19]: Non-toxic
- Cmax [20]: 1080 ng/mL
- Vd [21]: 12.1 L/kg
- MRT last at 24 h [22]: 49.7 min
- IC50 (Huh-7 [23]; huh-7): 3.41 µM
- clearance [24]: 253 mL/min/kg
- Activity [25]: Non-toxic

Compound: C=C1C(=O)O[C@H]2[C@H]1CC/C(CC(F)(F)F)=C\CC[C@@]1(C)O[C@@H]21
- Activity [26]: 0.51%
- IC50 (PANC-1 [2]; Homo sapiens, PANC-1, 72 h): 2.16 µM
- inhibition (NCI-H820 [27]): Active
- Activity [28]: 0.55%
- Activity (NCI-H820 [29]): Dose-dependent-effect
- IC50 ([11]; Homo sapiens, NCI-H820, 72 h): 2.66 µM
- Activity [30]: 5.24%
- inhibition (NCI-H820 [31]): Dose-dependent-effect
- Activity [32]: 1.4%
- Activity (NCI-H820 [33]): Active
- viability at 5 µM [34]: 86.8%
- inhibition (PANC-1 [35]): Active
- inhibition (NCI-H820 [36]): Dose-dependent-effect
- inhibition (Huh-7 [37]): Active
- inhibition (NCI-H820 [38]): Dose-dependent-effect
- inhibition [39]: Dose-dependent-effect
- Activity [40]: 6.54%
- Activity [41]: 2.07%
- Activity [42]: 0.14%
- Activity (NCI-H820 [43]): Active
- viability at 2 µM [44]: 64%
- inhibition (NCI-H820 [45]): Dose-dependent-effect
- Activity [46]: 2.77%
- IC50 (Huh-7 [23]; Homo sapiens, Huh-7, 72 h): 2.36 µM
- Activity [47]: 0.06%

Compound: CN(C)CC1C(=O)O[C@H]2[C@H]1CC/C(CC(F)(F)F)=C\CC[C@@]1(C)O[C@@H]21 (stereo partly drawn)
- Activity (NCI-H820 [48]): Active
- Activity (NCI-H820 [49]): Active

Compound: CCCNCC1C(=O)O[C@H]2[C@H]1CC/C(CC(F)(F)F)=C\CC[C@@]1(C)O[C@@H]21 (stereo partly drawn)
- IC50 (PANC-1 [2]; Homo sapiens, PANC-1, 72 h): 4.59 µM
- IC50 ([11]; Homo sapiens, NCI-H820, 72 h): 4.39 µM
- IC50 (Huh-7 [23]; Homo sapiens, Huh-7, 72 h): 4.32 µM

Compound: C=C1C(=O)O[C@H]2[C@H]1CC/C(C=C(F)F)=C\CC[C@@]1(C)O[C@@H]21
- IC50 (PANC-1 [2]; Homo sapiens, PANC-1, 72 h): 14.2 µM
- IC50 ([11]; Homo sapiens, NCI-H820, 72 h): 9.9 µM
- IC50 (Huh-7 [23]; Homo sapiens, Huh-7, 72 h): 7.52 µM
